Assay results: PubChem BioAssay (NCI)
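48-hour exposure; five concentrations; linearly interpolated endpoints. TGI denotes the concentration required for complete inhibition of growth.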

Experiments:
Test in all cases: inhibition of tumour cell growth, NCI panel, 48 h
MALME-3M melanoma = tested on: MALME-3M melanoma
CCRF-CEM leukemia = tested on: CCRF-CEM leukemia
SK-MEL-5 melanoma = tested on: SK-MEL-5 melanoma
KM20L2 colon = tested on: KM20L2 colon
LXFL 529 NSCLC = tested on: LXFL 529 NSCLC
A498 renal = tested on: A498 renal
DMS 114 small cell lung = tested on: DMS 114 small cell lung
KM12 colon = tested on: KM12 colon
OVCAR-5 ovarian = tested on: OVCAR-5 ovarian
SR leukemia = tested on: SR leukemia
RPMI-8226 leukemia = tested on: RPMI-8226 leukemia
TK-10 renal = tested on: TK-10 renal
HCC-2998 colon = tested on: HCC-2998 colon
SNB-78 CNS = tested on: SNB-78 CNS
OVCAR-4 ovarian = tested on: OVCAR-4 ovarian
NCI-H460 lung = tested on: NCI-H460 lung
NCI-H522 lung = tested on: NCI-H522 lung
OVCAR-8 ovarian = tested on: OVCAR-8 ovarian
UO-31 renal = tested on: UO-31 renal
SF-295 CNS = tested on: SF-295 CNS
XF 498 CNS = tested on: XF 498 CNS
NCI-H23 lung = tested on: NCI-H23 lung
LOX IMVI melanoma = tested on: LOX IMVI melanoma
M19-MEL melanoma = tested on: M19-MEL melanoma
HCT-116 colon = tested on: HCT-116 colon
RXF-631 renal = tested on: RXF-631 renal
UACC-257 melanoma = tested on: UACC-257 melanoma
RXF 393 renal = tested on: RXF 393 renal
SK-MEL-28 melanoma = tested on: SK-MEL-28 melanoma
IGROV1 ovarian = tested on: IGROV1 ovarian
HOP-62 NSCLC = tested on: HOP-62 NSCLC
SW-620 colon = tested on: SW-620 colon
SK-OV-3 ovarian = tested on: SK-OV-3 ovarian
HCT-15 colon = tested on: HCT-15 colon
SNB-75 CNS = tested on: SNB-75 CNS
UACC-62 melanoma = tested on: UACC-62 melanoma
ACHN renal = tested on: ACHN renal
SF-268 CNS = tested on: SF-268 CNS
SK-MEL-2 melanoma = tested on: SK-MEL-2 melanoma
M14 melanoma = tested on: M14 melanoma
K-562 leukemia = tested on: K-562 leukemia
SF-539 CNS = tested on: SF-539 CNS
786-0 renal = tested on: 786-0 renal
A549 NSCLC = tested on: A549 NSCLC
SNB-19 CNS = tested on: SNB-19 CNS
COLO 205 colon = tested on: COLO 205 colon
OVCAR-3 ovarian = tested on: OVCAR-3 ovarian
U251 CNS = tested on: U251 CNS
HOP-18 NSCLC = tested on: HOP-18 NSCLC
HL-60(TB) leukemia = tested on: HL-60(TB) leukemia
CAKI-1 renal = tested on: CAKI-1 renal
DLD-1 colon = tested on: DLD-1 colon
MOLT-4 leukemia = tested on: MOLT-4 leukemia
SN12C renal = tested on: SN12C renal
HT29 colon = tested on: HT29 colon
NCI-H226 lung = tested on: NCI-H226 lung
EKVX NSCLC = tested on: EKVX NSCLC
HOP-92 NSCLC = tested on: HOP-92 NSCLC
DMS 273 small cell lung = tested on: DMS 273 small cell lung

`COC(=O)C(Cc1nc2ccccc2nc1C)/C(=N\NC(N)=O)C(=O)Nc1cccc([N+](=O)[O-])c1` (stereo not given) was tested, and the TGI (MALME-3M melanoma) was > 100 µM, the TGI (CCRF-CEM leukemia) was > 100 µM and the TGI (SK-MEL-5 melanoma) was > 100 µM. For the same compound, the TGI (KM20L2 colon) was > 100 µM, the TGI (LXFL 529 NSCLC) was > 100 µM and the TGI (A498 renal) was > 100 µM. For the same compound, the TGI (DMS 114 small cell lung) was > 100 µM, the TGI (KM12 colon) was > 100 µM and the TGI (OVCAR-5 ovarian) was > 100 µM. The TGI (SR leukemia) was > 100 µM, the TGI (RPMI-8226 leukemia) was > 100 µM and the TGI (TK-10 renal) was > 100 µM. For the same compound, the TGI (HCC-2998 colon) was > 100 µM, the TGI (SNB-78 CNS) was > 100 µM and the TGI (OVCAR-4 ovarian) was > 100 µM. For the same compound, the TGI (NCI-H460 lung) was > 100 µM, the TGI (NCI-H522 lung) was 27.3 µM and the TGI (OVCAR-8 ovarian) was > 100 µM. The TGI (UO-31 renal) was > 100 µM, the TGI (SF-295 CNS) was > 100 µM and the TGI (XF 498 CNS) was > 100 µM. For the same compound, the TGI (NCI-H23 lung) was > 100 µM, the TGI (LOX IMVI melanoma) was > 100 µM and the TGI (M19-MEL melanoma) was > 100 µM. The TGI (HCT-116 colon) was > 100 µM, the TGI (RXF-631 renal) was > 100 µM and the TGI (UACC-257 melanoma) was > 100 µM. For the same compound, the TGI (RXF 393 renal) was > 100 µM, the TGI (SK-MEL-28 melanoma) was > 100 µM and the TGI (IGROV1 ovarian) was > 100 µM. For the same compound, the TGI (HOP-62 NSCLC) was > 100 µM, the TGI (SW-620 colon) was > 100 µM and the TGI (SK-OV-3 ovarian) was > 100 µM. The TGI (HCT-15 colon) was > 100 µM, the TGI (SNB-75 CNS) was > 100 µM and the TGI (UACC-62 melanoma) was > 100 µM. For the same compound, the TGI (ACHN renal) was > 100 µM, the TGI (SF-268 CNS) was > 100 µM and the TGI (SK-MEL-2 melanoma) was > 100 µM. For the same compound, the TGI (M14 melanoma) was > 100 µM, the TGI (K-562 leukemia) was > 100 µM and the TGI (SF-539 CNS) was > 100 µM. The TGI (786-0 renal) was > 100 µM, the TGI (A549 NSCLC) was > 100 µM and the TGI (SNB-19 CNS) was > 100 µM. For the same compound, the TGI (COLO 205 colon) was > 100 µM, the TGI (OVCAR-3 ovarian) was > 100 µM and the TGI (U251 CNS) was > 100 µM. The TGI (HOP-18 NSCLC) was > 100 µM, the TGI (HL-60(TB) leukemia) was > 100 µM and the TGI (CAKI-1 renal) was > 100 µM. For the same compound, the TGI (DLD-1 colon) was > 100 µM, the TGI (MOLT-4 leukemia) was > 100 µM and the TGI (SN12C renal) was > 100 µM. For the same compound, the TGI (HT29 colon) was > 100 µM, the TGI (NCI-H226 lung) was > 100 µM and the TGI (EKVX NSCLC) was > 100 µM.
For `NNC(=O)N/N=C1\C(=O)N(c2ccc(Cl)c(Cl)c2)C(=O)C(=O)C1c1nc2ccccc2s1` (stereo not given), the TGI (MALME-3M melanoma) was > 100 µM, the TGI (CCRF-CEM leukemia) was > 100 µM and the TGI (SK-MEL-5 melanoma) was > 100 µM. The TGI (KM20L2 colon) was > 100 µM, the TGI (LXFL 529 NSCLC) was > 100 µM and the TGI (A498 renal) was > 100 µM. For the same compound, the TGI (HOP-92 NSCLC) was > 100 µM, the TGI (DMS 114 small cell lung) was > 100 µM and the TGI (KM12 colon) was > 100 µM. The TGI (SR leukemia) was > 100 µM, the TGI (TK-10 renal) was > 100 µM and the TGI (HCC-2998 colon) was > 100 µM. The TGI (SNB-78 CNS) was > 100 µM, the TGI (OVCAR-4 ovarian) was > 100 µM and the TGI (NCI-H460 lung) was > 100 µM. The TGI (NCI-H522 lung) was > 100 µM, the TGI (OVCAR-8 ovarian) was > 100 µM and the TGI (UO-31 renal) was > 100 µM. The TGI (SF-295 CNS) was > 100 µM, the TGI (XF 498 CNS) was > 100 µM and the TGI (NCI-H23 lung) was > 100 µM. For the same compound, the TGI (HCT-116 colon) was > 100 µM, the TGI (UACC-257 melanoma) was > 100 µM and the TGI (RXF 393 renal) was > 100 µM. The TGI (SK-MEL-28 melanoma) was > 100 µM, the TGI (IGROV1 ovarian) was > 100 µM and the TGI (HOP-62 NSCLC) was > 100 µM. For the same compound, the TGI (SW-620 colon) was > 100 µM, the TGI (SK-OV-3 ovarian) was > 100 µM and the TGI (HCT-15 colon) was > 100 µM. For the same compound, the TGI (SNB-75 CNS) was > 100 µM, the TGI (DMS 273 small cell lung) was > 100 µM and the TGI (UACC-62 melanoma) was > 100 µM. For the same compound, the TGI (ACHN renal) was > 100 µM, the TGI (SF-268 CNS) was > 100 µM and the TGI (SK-MEL-2 melanoma) was > 100 µM. The TGI (M14 melanoma) was > 100 µM, the TGI (SF-539 CNS) was > 100 µM and the TGI (786-0 renal) was > 100 µM. For the same compound, the TGI (A549 NSCLC) was > 100 µM, the TGI (SNB-19 CNS) was > 100 µM and the TGI (COLO 205 colon) was > 100 µM. For the same compound, the TGI (OVCAR-3 ovarian) was > 100 µM, the TGI (U251 CNS) was > 100 µM and the TGI (HOP-18 NSCLC) was > 100 µM. The TGI (HL-60(TB) leukemia) was > 100 µM, the TGI (CAKI-1 renal) was > 100 µM and the TGI (DLD-1 colon) was > 100 µM. The TGI (MOLT-4 leukemia) was > 100 µM, the TGI (SN12C renal) was > 100 µM and the TGI (HT29 colon) was > 100 µM. The TGI (NCI-H226 lung) was > 100 µM and the TGI (EKVX NSCLC) was > 100 µM.
In the case of `Cc1ccc(S(=O)OCC23CC4CC(CC(C4)C2)C3)cc1` (stereo not given), the TGI (MALME-3M melanoma) was > 100 µM, the TGI (SK-MEL-5 melanoma) was > 100 µM and the TGI (KM20L2 colon) was > 100 µM. For the same compound, the TGI (LXFL 529 NSCLC) was > 100 µM, the TGI (A498 renal) was > 100 µM and the TGI (HOP-92 NSCLC) was > 100 µM. For the same compound, the TGI (KM12 colon) was > 100 µM, the TGI (OVCAR-5 ovarian) was > 100 µM and the TGI (SR leukemia) was > 100 µM. The TGI (RPMI-8226 leukemia) was > 100 µM, the TGI (TK-10 renal) was > 100 µM and the TGI (HCC-2998 colon) was > 100 µM. The TGI (SNB-78 CNS) was > 100 µM, the TGI (OVCAR-4 ovarian) was > 100 µM and the TGI (NCI-H460 lung) was > 100 µM. The TGI (NCI-H522 lung) was > 100 µM, the TGI (OVCAR-8 ovarian) was > 100 µM and the TGI (UO-31 renal) was > 100 µM. For the same compound, the TGI (SF-295 CNS) was > 100 µM, the TGI (XF 498 CNS) was > 100 µM and the TGI (NCI-H23 lung) was > 100 µM. The TGI (LOX IMVI melanoma) was > 100 µM, the TGI (M19-MEL melanoma) was > 100 µM and the TGI (HCT-116 colon) was > 100 µM. The TGI (UACC-257 melanoma) was > 100 µM, the TGI (RXF 393 renal) was > 100 µM and the TGI (SK-MEL-28 melanoma) was > 100 µM. The TGI (IGROV1 ovarian) was > 100 µM, the TGI (HOP-62 NSCLC) was > 100 µM and the TGI (SW-620 colon) was > 100 µM. For the same compound, the TGI (SK-OV-3 ovarian) was > 100 µM, the TGI (HCT-15 colon) was > 100 µM and the TGI (SNB-75 CNS) was > 100 µM. The TGI (DMS 273 small cell lung) was > 100 µM, the TGI (UACC-62 melanoma) was > 100 µM and the TGI (ACHN renal) was > 100 µM. The TGI (SF-268 CNS) was > 100 µM, the TGI (M14 melanoma) was > 100 µM and the TGI (K-562 leukemia) was > 100 µM. The TGI (SF-539 CNS) was > 100 µM, the TGI (786-0 renal) was > 100 µM and the TGI (A549 NSCLC) was > 100 µM. For the same compound, the TGI (SNB-19 CNS) was > 100 µM, the TGI (COLO 205 colon) was > 100 µM and the TGI (OVCAR-3 ovarian) was > 100 µM. For the same compound, the TGI (U251 CNS) was > 100 µM, the TGI (HOP-18 NSCLC) was > 100 µM and the TGI (HL-60(TB) leukemia) was > 100 µM. For the same compound, the TGI (CAKI-1 renal) was > 100 µM, the TGI (DLD-1 colon) was > 100 µM and the TGI (MOLT-4 leukemia) was > 100 µM. For the same compound, the TGI (SN12C renal) was > 100 µM, the TGI (HT29 colon) was > 100 µM and the TGI (NCI-H226 lung) was > 100 µM. The TGI (EKVX NSCLC) was > 100 µM.
